As usually defined, the IC50 is the concentration that inhibits the measured activity by half.

IC50 and activation data for 17 compounds are collected here from US20100056526A1, “HETEROMONOCYCLIC COMPOUND AND USE THEREOF” (Takeda Pharmaceutical Company Limited, priority 2006, published 2010).

For one experiment, the target named is T1, human AT1 receptor (Homo sapiens, UniProt P30556).
T1 construct: expressed in transfected cells; host or cells: CHO-K1
T1 sequence (P30556 1-359): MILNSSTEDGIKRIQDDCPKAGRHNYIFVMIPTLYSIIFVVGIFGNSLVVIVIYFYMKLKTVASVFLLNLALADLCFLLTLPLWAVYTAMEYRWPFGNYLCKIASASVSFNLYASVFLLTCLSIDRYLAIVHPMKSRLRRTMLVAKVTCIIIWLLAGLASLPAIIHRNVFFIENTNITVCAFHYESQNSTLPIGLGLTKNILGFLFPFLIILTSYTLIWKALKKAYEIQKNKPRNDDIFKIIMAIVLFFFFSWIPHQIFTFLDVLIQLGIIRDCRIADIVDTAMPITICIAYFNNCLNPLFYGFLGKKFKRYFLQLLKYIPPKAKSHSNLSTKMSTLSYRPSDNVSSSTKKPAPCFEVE
Put plainly: Binding assay using human AT1 receptor-expressing CHO-K1 cell membrane fraction ([125I]-angiotensin II). Particulars: 22.5 pM [125I]-angiotensin II, 9 μg AT1 membrane, 1 hr room temperature; read-out: AT1 receptor binding inhibitory action (IC50 (nM)). The gist of the method: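 CHO-K1 membranes stably expressing AT1 (9 μg) incubated with 22.5 pM [125I]-angiotensin II and compound in 50 mM Tris pH 7.4, 10 mM MgCl2, with or without 0.3 mg/mL fatty acid-free BSA, 1 hr at room temperature. Bound radioactivity counted after GF/C filtration; nonspecific binding with 1 μM CV-11974; IC50 calculated.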

The target of a further experiment is T2, PPARγ (Homo sapiens, UniProt P37231).
T2 construct: expressed in transfected cells; host or cells: CHO-K1
T2 sequence (P37231 1-477 isoform P37231-2): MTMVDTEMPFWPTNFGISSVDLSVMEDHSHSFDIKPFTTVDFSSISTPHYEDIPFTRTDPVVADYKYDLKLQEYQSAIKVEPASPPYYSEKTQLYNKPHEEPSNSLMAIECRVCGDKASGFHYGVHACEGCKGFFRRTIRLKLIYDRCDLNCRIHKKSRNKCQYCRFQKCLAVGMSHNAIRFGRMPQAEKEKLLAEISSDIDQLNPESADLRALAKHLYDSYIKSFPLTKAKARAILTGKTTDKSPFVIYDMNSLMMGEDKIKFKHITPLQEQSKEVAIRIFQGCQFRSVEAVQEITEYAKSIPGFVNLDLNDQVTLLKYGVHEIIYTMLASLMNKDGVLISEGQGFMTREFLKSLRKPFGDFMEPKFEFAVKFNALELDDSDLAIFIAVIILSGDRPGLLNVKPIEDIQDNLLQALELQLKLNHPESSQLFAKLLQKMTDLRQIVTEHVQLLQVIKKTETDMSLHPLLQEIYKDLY
T2 sequence (P19793 1-462 partner): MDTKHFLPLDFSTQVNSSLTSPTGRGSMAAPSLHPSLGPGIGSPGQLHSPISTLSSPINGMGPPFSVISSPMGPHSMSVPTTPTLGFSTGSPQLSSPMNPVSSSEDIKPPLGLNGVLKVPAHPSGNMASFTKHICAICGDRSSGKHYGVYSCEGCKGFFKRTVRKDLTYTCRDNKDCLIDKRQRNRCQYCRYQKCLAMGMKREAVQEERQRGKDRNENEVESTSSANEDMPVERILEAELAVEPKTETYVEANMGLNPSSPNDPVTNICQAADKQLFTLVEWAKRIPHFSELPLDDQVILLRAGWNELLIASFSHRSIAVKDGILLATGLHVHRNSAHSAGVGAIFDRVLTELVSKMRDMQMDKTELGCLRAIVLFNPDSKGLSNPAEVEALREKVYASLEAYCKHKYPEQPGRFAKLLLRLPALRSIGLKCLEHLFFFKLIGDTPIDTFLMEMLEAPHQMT
Put plainly: Evaluation of PPARγ activating action (luciferase reporter in PPARγ:RXRα:4ERPP/CHO-K1 cells). It counts as cell-based. The conditions noted are these: CHO-K1, 24 h; test compound 10^−6 M; luciferase activity relative to control compound X (1 μM) = 100%, non-administration group = 0%; read-out: PPARγ activating action (activation % (10^−6 M)). The gist of the method:
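CHO-K1 cells stably carrying PPARγ, RXRα and a 4ERPP luciferase reporter were treated with compound for 1 day at 37 °C in F12 medium with 0.1% fatty acid-free BSA. Luciferase activity was read and scaled between no compound (0%) and reference agonist compound X at 1 μM (100%).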
On the technique in general: Reporter assays use an easily measured gene product as a stand-in for the process of interest.

For the compound `CCCc1nc(CC)n(-c2ccc(OC3CCCC(O)C3)cc2)c(=O)c1Cc1ccc(-c2ccccc2-c2noc(=O)[nH]2)cc1` (stereo not shown) [Example 422, 2-ethyl-3-{4-[(3-hydroxycyclohexyl)oxy]phenyl}-5-{[2′-(5-oxo-4,5-dihydro-1,2,4-oxadiazol-3-yl)biphenyl-4-yl]methyl}-6-propylpyrimidin-4(3H)-one], the IC50 at human AT1 receptor worked out at 0.9 nM. For the same compound, the activation at 1 µM on PPARγ was found to be 22.2%.

On to `CCCc1nc(CC)n(-c2ccc(OC3CCOC(C)C3)cc2)c(=O)c1Cc1ccc(-c2ccccc2-c2noc(=O)[nH]2)cc1` (stereo not shown) [Example 424, 2-ethyl-3-{4-[(2-methyltetrahydro-2H-pyran-4-yl)oxy]phenyl}-5-{[2′-(5-oxo-4,5-dihydro-1,2,4-oxadiazol-3-yl)biphenyl-4-yl]methyl}-6-propylpyrimidin-4(3H)-one], for which, on human AT1 receptor, the IC50 is 1.3 nM. Further, the activation at 1 µM at PPARγ worked out at 33.5%.

Consider `CCCc1nc(CC)n(-c2ccc(OC3CCC(O)C3)cc2)c(=O)c1Cc1ccc(-c2ccccc2-c2noc(=O)[nH]2)cc1` (stereo not shown) [Example 425, 2-ethyl-3-{4-[(3-hydroxycyclopentyl)oxy]phenyl}-5-{[2′-(5-oxo-4,5-dihydro-1,2,4-oxadiazol-3-yl)biphenyl-4-yl]methyl}-6-propylpyrimidin-4(3H)-one], for which the IC50 on human AT1 receptor was 1.2 nM. Moreover, the activation at 1 µM at PPARγ was found to be 37.5%.

Consider `CCCCc1nc(C)n(-c2ccc(OC(C)(C)COC)cc2)c(=O)c1Cc1ccc(-c2ccccc2-c2noc(=O)[nH]2)cc1` [Example 427, 6-butyl-3-[4-(2-methoxy-1,1-dimethylethoxy)phenyl]-2-methyl-5-{[2′-(5-oxo-4,5-dihydro-1,2,4-oxadiazol-3-yl)biphenyl-4-yl]methyl}pyrimidin-4(3H)-one], for which the concentration for half-maximal inhibition (IC50) at human AT1 receptor came out at 1.4 nM. The activation at 1 µM at PPARγ was 17.7%.

Take `CCCc1nc(C)n(-c2ccc(OC3CCCC(=O)CC3)cc2)c(=O)c1Cc1ccc(-c2ccccc2-c2noc(=O)[nH]2)cc1` (stereo not shown) [Example 437, 2-methyl-3-{4-[(4-oxocycloheptyl)oxy]phenyl}-5-{[2′-(5-oxo-4,5-dihydro-1,2,4-oxadiazol-3-yl)biphenyl-4-yl]methyl}-6-propylpyrimidin-4(3H)-one]: the IC50 at human AT1 receptor was 1 nM. Further, the activation at 1 µM at PPARγ came out at 18.1%.

As for `CCCc1nc(C)n(-c2ccc(OC(C)(C)C(C)O)cc2)c(=O)c1Cc1ccc(-c2ccccc2-c2noc(=O)[nH]2)cc1` (stereo not shown) [Example 439, 3-[4-(2-hydroxy-1,1-dimethylpropoxy)phenyl]-2-methyl-5-{[2′-(5-oxo-4,5-dihydro-1,2,4-oxadiazol-3-yl)biphenyl-4-yl]methyl}-6-propylpyrimidin-4(3H)-one], the half-inhibitory concentration (IC50) on human AT1 receptor worked out at 1.4 nM. The activation at 1 µM at PPARγ is 20.1%.

Turning to `CCCc1nc(C)n(-c2ccc(OC(C)(C)C(C)=O)cc2)c(=O)c1Cc1ccc(-c2ccccc2-c2noc(=O)[nH]2)cc1` [Example 440, 3-[4-(1,1-dimethyl-2-oxopropoxy)phenyl]-2-methyl-5-{[2′-(5-oxo-4,5-dihydro-1,2,4-oxadiazol-3-yl)biphenyl-4-yl]methyl}-6-propylpyrimidin-4(3H)-one], the IC50 at human AT1 receptor was determined as 1.6 nM. Besides, on PPARγ, the activation at 1 µM is 29.9%.

`CCCc1nc(CC)n(-c2ccc(OC(C)(C)C(C)O)cc2)c(=O)c1Cc1ccc(-c2ccccc2-c2noc(=O)[nH]2)cc1` (stereo not shown) [Example 444, 2-ethyl-3-[4-(2-hydroxy-1,1-dimethylpropoxy)phenyl]-5-{[2′-(5-oxo-4,5-dihydro-1,2,4-oxadiazol-3-yl)biphenyl-4-yl]methyl}-6-propylpyrimidin-4(3H)-one]: the IC50 at human AT1 receptor was 1.3 nM. Also, on PPARγ, the activation at 1 µM turned out to be 55.4%.

With `CCCc1nc(CC)n(-c2ccc(OC(C)(C)C(C)=O)cc2)c(=O)c1Cc1ccc(-c2ccccc2-c2noc(=O)[nH]2)cc1` [Example 445, 3-[4-(1,1-dimethyl-2-oxopropoxy)phenyl]-2-ethyl-5-{[2′-(5-oxo-4,5-dihydro-1,2,4-oxadiazol-3-yl)biphenyl-4-yl]methyl}-6-propylpyrimidin-4 (3H)-one], the IC50 at human AT1 receptor is 1.2 nM. Further, the activation at 1 µM on PPARγ stood at 62.9%.

Consider `CCCc1nc(C)c(-c2ccc(OC(C)C)cc2)c(=O)n1Cc1ccc(-c2ccccc2-c2noc(O)n2)cc1F` [Example 450, 3-{[3-fluoro-2′-(5-oxo-4,5-dihydro-1,2,4-oxadiazol-3-yl)biphenyl-4-yl]methyl}-5-(4-isopropoxyphenyl)-6-methyl-2-propylpyrimidin-4(3H)-one], for which the IC50 at human AT1 receptor came to 1.8 nM. The activation at 1 µM at PPARγ was determined as 23.7%.

With `CCCCc1nc(C)c(C(O)c2ccccc2)c(=O)n1Cc1ccc(-c2ccccc2-c2noc(=O)[nH]2)cc1` (stereo not shown) [Example 452, 2-butyl-5-[hydroxy(phenyl)methyl]-6-methyl-3-{[2′-(5-oxo-4,5-dihydro-1,2,4-oxadiazol-3-yl)biphenyl-4-yl]methyl}pyrimidin-4(3H)-one], the IC50 at human AT1 receptor was found to be 2.1 nM. Also, the activation at 1 µM on PPARγ was 52.9%.

As for `CCCCc1nc(C)c(C(=O)c2ccccc2)c(=O)n1Cc1ccc(-c2ccccc2-c2noc(=O)[nH]2)cc1` [Example 453, 5-benzoyl-2-butyl-6-methyl-3-{[2′-(5-oxo-4,5-dihydro-1,2,4-oxadiazol-3-yl)biphenyl-4-yl]methyl}pyrimidin-4(3H)-one], the IC50 on human AT1 receptor amounted to 2.9 nM. Besides, the activation at 1 µM on PPARγ was 22.5%.

As to `CCCc1nc(CC)c(CN2CCOCC2)c(=O)n1Cc1ccc(-c2ccccc2-c2noc(=O)[nH]2)cc1` [Example 455, 6-ethyl-5-(morpholin-4-ylmethyl)-3-{[2′-(5-oxo-4,5-dihydro-1,2,4-oxadiazol-3-yl)biphenyl-4-yl]methyl}-2-propylpyrimidin-4(3H)-one], at human AT1 receptor, the IC50 turned out to be 2 nM. Further, the activation at 1 µM at PPARγ is 16%.

`CCCc1nc(CC)c(-c2ccc(OC)cc2)c(=O)n1Cc1ccc(-c2ccccc2-c2noc(O)n2)cc1` [Example 456, 6-ethyl-5-(4-methoxyphenyl)-3-{[2′-(5-oxo-4,5-dihydro-1,2,4-oxadiazol-3-yl)biphenyl-4-yl]methyl}-2-propylpyrimidin-4(3H)-one]: the IC50 on human AT1 receptor came to 1.8 nM. Further, the activation at 1 µM on PPARγ amounted to 30%.

Consider `CCCc1nc(CC)c(-c2ccc(OC(F)(F)F)cc2)c(=O)n1Cc1ccc(-c2ccccc2-c2noc(O)n2)cc1` [Example 457, 6-ethyl-3-{[2′-(5-oxo-4,5-dihydro-1,2,4-oxadiazol-3-yl)biphenyl-4-yl]methyl}-2-propyl-5-[4-(trifluoromethoxy)phenyl]pyrimidin-4(3H)-one], for which the IC50 on human AT1 receptor is 3.5 nM. Besides, on PPARγ, the activation at 1 µM was 36%.

Turning to `CCCc1nc(CC)c(-c2ccc(OC(C)C)cc2F)c(=O)n1Cc1ccc(-c2ccccc2-c2noc(O)n2)cc1` [Example 458, 6-ethyl-5-(2-fluoro-4-isopropoxyphenyl)-3-{[2′-(5-oxo-4,5-dihydro-1,2,4-oxadiazol-3-yl)biphenyl-4-yl]methyl}-2-propylpyrimidin-4(3H)-one], the IC50 on human AT1 receptor was 2.2 nM. The activation at 1 µM at PPARγ is 36%.

Consider `CCCOc1ccc(-c2c(CC)nc(CCC)n(Cc3ccc(-c4ccccc4-c4noc(=O)[nH]4)cc3)c2=O)cc1` [Example 459, 6-ethyl-3-{[2′-(5-oxo-4,5-dihydro-1,2,4-oxadiazol-3-yl)biphenyl-4-yl]methyl}-5-(4-propoxyphenyl)-2-propylpyrimidin-4(3H)-one], for which the IC50 at human AT1 receptor was found to be 2.1 nM. The activation at 1 µM at PPARγ was 40%.
